What follows are molecules tested against T1, Sentrin-specific protease 1 (Homo sapiens, UniProt Q9P0U3).
T1 sequence (Q9P0U3 whole entry): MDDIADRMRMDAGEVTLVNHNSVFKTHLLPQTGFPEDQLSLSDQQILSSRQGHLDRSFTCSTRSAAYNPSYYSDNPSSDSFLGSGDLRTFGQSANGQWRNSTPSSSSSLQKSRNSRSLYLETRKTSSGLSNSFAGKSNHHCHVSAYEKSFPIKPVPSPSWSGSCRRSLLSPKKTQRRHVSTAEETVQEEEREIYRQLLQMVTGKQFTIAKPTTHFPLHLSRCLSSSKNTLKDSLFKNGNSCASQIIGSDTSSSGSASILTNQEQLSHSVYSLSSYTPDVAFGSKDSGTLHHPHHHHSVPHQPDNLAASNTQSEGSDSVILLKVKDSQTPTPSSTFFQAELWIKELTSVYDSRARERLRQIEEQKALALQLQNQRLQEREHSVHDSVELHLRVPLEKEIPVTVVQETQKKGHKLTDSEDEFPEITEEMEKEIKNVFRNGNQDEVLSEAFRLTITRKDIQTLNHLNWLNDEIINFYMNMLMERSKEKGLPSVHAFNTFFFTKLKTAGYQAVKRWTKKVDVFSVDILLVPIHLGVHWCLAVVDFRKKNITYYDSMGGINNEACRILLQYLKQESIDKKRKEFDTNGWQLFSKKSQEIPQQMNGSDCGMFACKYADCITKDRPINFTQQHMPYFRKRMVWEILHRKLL
`CCOC1=CC(=Cc2sc(=O)[nH]c2N)C=CC1=O` gave an IC50 of 10.9 µM.
`O=[N+]([O-])c1ccc(C/N=N/c2ccccc2)cc1` showed an IC50 of 21.5 µM.
For `COc1ccc(OC)c(CCNC(=O)c2ccc3c(=O)[nH]c4c(C(=O)NC(C)C)sc(=S)n4c3c2)c1`, the IC50 was > 80 µM.
`COc1ccc(-n2c(O)c3c(c2O)C(C(=O)c2ccc(Cl)cc2)N2CCCC32)cc1` (stereo unspecified) gave an IC50 of 5.56 µM.
`O=C1CC(=Nc2ccc(Cl)cc2)C(=O)N1c1ccc(Cl)cc1` [1-(4-chlorophenyl)-3-[(4-chlorophenyl)amino]pyrrole-2,5-dione] was tested, and the IC50 was 21 µM.
For `CC1(C)CC(=O)C2Sc3ccccc3N=C2C1` (stereo unspecified) [2,2-Dimethyl-2,3-dihydro-1H,10H-phenothiazin-4-one], the IC50 was 29 µM.
`O=C(Cc1cccc2ccccc12)NC(NC(=S)Nc1ccccc1Cl)C(Cl)(Cl)Cl` (stereo unspecified) [2-(1-naphthyl)-N-[2,2,2-trichloro-1-({[(2-chlorophenyl)amino]carbonothioyl}amino)ethyl]acetamide] gave an IC50 of 8.36 µM.
`N#CC1C(=N)Oc2cc(Nc3ccccc3)ccc2C1c1ccncc1` (stereo unspecified) [2-amino-7-anilino-4-pyridin-4-yl-4H-1-benzopyran-3-carbonitrile] was tested, and the IC50 was 41.9 µM.
Molecule `CCN1C(=O)c2cccc3c(NC(=O)c4cccc(-n5c(O)ccc5O)c4)ccc1c23` [3-(2,5-dioxopyrrolidin-1-yl)-N-(1-ethyl-2-oxobenzo[cd]indol-6-yl)benzamide] has an IC50 of 17.9 µM.
`COc1ccc(C=Nn2c(O)csc2=S)cc1Br` [3-[(E)-(3-bromo-4-methoxyphenyl)methylideneamino]-2-sulfanylidene-4-thiazolidinone] was tested, and the IC50 was 19.3 µM.
`O=C1CC(=O)c2cccc3cccc1c23` [3-hydroxy-1H-phenalen-1-one] showed an IC50 of 13.1 µM.
With `Oc1c2c(c(O)n1-c1ccccn1)C(c1ccccc1)C=CC2c1ccccc1` (stereo unspecified) [4,7-diphenyl-2-pyridin-2-yl-3a,4,7,7a-tetrahydroisoindole-1,3-dione] the IC50 was 10.8 µM.
In the case of `COc1nccnc1NS(=O)(=O)c1ccc(NC(=S)NC(=O)c2ccc(F)cc2)cc1` [4-[3-(4-Fluoro-benzoyl)-thioureido]-N-(3-methoxy-pyrazin-2-yl)-benzenesulfonamide], the IC50 is reported as 11.6 µM.
In the case of `O=C(O)c1ccc(N=NCc2cccc3nccnc23)cc1` [4-[(2E)-2-(5-quinoxalinylmethylidene)hydrazinyl]benzoic acid], the IC50 is reported as 15.1 µM.
With `O=C1NC(=S)N/C1=C/c1cccc([N+](=O)[O-])c1O` [(5E)-5-[(2-hydroxy-3-nitrophenyl)methylidene]-2-sulfanylideneimidazolidin-4-one] the IC50 was > 80 µM.
`CCOC(=O)/C(C#N)=C/C=C1\C=Cc2ccccc2N1CC` [(E,4E)-2-cyano-4-(1-ethyl-2-quinolinylidene)-2-butenoic acid ethyl ester] was tested, and the IC50 was > 80 µM.
`CC(=O)Oc1ccc(-n2c(O)c3c(c2O)C(C(=O)c2ccc(Cl)cc2)N2CCCC32)cc1` (stereo unspecified) [Acetic acid 4-[4-(4-chloro-benzoyl)-1,3-dioxo-octahydro-pyrrolo[3,4-a]pyrrolizin-2-yl]-phenyl ester] showed an IC50 of 7.5 µM.
`O=C1CCCC2=Nc3cc(Cl)ccc3SC12` (stereo unspecified) [MLS000333002] showed an IC50 of 13.7 µM.
With `CN(C)c1ccc(C=NNC(=O)C(=O)CC2=NC3(CCCC3)Cc3ccccc32)cc1` [MLS000589038] the IC50 was 10.1 µM.
With `COc1ccc(-n2c(O)c3c(c2O)C(C(=O)c2ccccc2)N2CCCC32)cc1` (stereo unspecified) [MLS000762485] the IC50 was 31 µM.
`CCOc1cc(C=c2[nH]c3n(c2=O)CCCCC=3)ccc1O` [MLS000774439] was tested, and the IC50 was 9.57 µM.
For `CC1=C(C#N)C(=O)NC(=O)C1=NNc1ccc(Br)cc1C(=O)O` [MLS001213177], the IC50 was 18.1 µM.
`O=NC1c2cc([N+](=O)[O-])ccc2-c2cc(Cl)c(NC(=O)C(F)(F)F)cc21` (stereo unspecified) [MLS002707326] gave an IC50 of 12.5 µM.
Molecule `Nc1ccc2c(c1)C(N=O)c1cc([N+](=O)[O-])ccc1-2` (stereo unspecified) [N-(2-azanyl-7-nitro-fluoren-9-ylidene)hydroxylamine] has an IC50 of 18.1 µM.
With `Nc1cc([N+](=O)[O-])ccc1Nc1ccccc1` [SMR000271721] the IC50 was > 80 µM.
With `CCN(CC)CCNc1cccc2sc3ccccc3c(=O)c12` [SMR001821489] the IC50 was > 80 µM.

From BindingDB's records for doi:10.7270/Q2MC8XNQ (Burnham Center For Chemical Genomics, 2012)
